Experimental data as given in patent US9820937B2, “Pharmaceutical composition formulated for pre-gastric absorption of monoamine oxidase B inhibitors” (R.P. Scherer Technologies, LLC, priority 1997, dated 2017).

Biological target: T1, MAO-B (Homo sapiens, UniProt P27338)
T1 construct: from tissue; host or cells: whole body of living study subjects (in vivo); no isolated enzyme
T1 sequence (P27338 1-520): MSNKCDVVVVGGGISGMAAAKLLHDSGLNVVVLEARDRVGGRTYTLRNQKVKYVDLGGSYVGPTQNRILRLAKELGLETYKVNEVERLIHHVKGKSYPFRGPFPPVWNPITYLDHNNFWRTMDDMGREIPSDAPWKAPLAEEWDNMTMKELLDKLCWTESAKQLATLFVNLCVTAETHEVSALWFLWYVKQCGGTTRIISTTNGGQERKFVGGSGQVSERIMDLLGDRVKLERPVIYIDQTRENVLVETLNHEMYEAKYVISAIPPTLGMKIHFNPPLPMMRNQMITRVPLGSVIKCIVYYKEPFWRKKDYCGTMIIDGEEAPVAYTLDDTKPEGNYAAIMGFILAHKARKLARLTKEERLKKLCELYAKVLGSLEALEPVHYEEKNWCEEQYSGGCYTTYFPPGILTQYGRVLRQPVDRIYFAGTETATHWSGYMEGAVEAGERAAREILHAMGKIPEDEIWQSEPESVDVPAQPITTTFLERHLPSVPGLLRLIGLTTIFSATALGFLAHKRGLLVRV
Assay type: in vivo
Details: four pharmacokinetic studies

C#CCN[C@H](C)Cc1ccccc1 [N-desmethylselegiline]
correlation of Log 10 plasma AUC with 24 hour cumulative urinary excretion of phenethylamine: no significant correlation
